# Assay results published in ChEMBL document CHEMBL3885881, “DrugMatrix”.
# Species on record: Rattus norvegicus
# Assay: DrugMatrix - Regimen: Daily Repeat
# Format: toxicity, organism-based, Sprague-Dawley
# Set-up: regimen Daily Repeat, gender Male, age 6-8 weeks
# Conditions: in vivo, po, route oral GAVAGE, vehicle .5 % CMC; for URIC ACID / ALANINE AMINOTRANSFERASE / ALBUMIN / ALKALINE PHOSPHATASE / ASPARTATE AMINOTRANSFERASE / BLOOD UREA NITROGEN / CARBON DIOXIDE / CHLORIDE / CHOLESTEROL / CREATINE PHOSPHOKINASE / CREATININE / GLUCOSE / LACTATE DEHYDROGENASE / LIPASE / PHOSPHORUS / POTASSIUM / SODIUM / TOTAL BILIRUBIN / TOTAL PROTEIN: tissue Plasma; for ABSOLUTE BASOPHIL / ABSOLUTE EOSINOPHIL / ABSOLUTE LYMPHOCYTE / ABSOLUTE MONOCYTE / ABSOLUTE SEGMENTED NEUTROPHIL / BASOPHIL / EOSINOPHIL / ERYTHROCYTE COUNT / HEMATOCRIT / HEMOGLOBIN / LEUKOCYTE COUNT / LYMPHOCYTE / MEAN CORPUSCULAR HEMOGLOBIN / MEAN CORPUSCULAR HEMOGLOBIN CONCENTRATION / MEAN CORPUSCULAR VOLUME / MONOCYTE / NEUTROPHIL / NUCLEATED RED BLOOD CELLS / PLATELET COUNT: tissue Blood
# [1] = 10 mg/kg, 120 h, dose level Low, time 5 day
# [2] = 400 mg/kg, 72 h, dose level High, time 3 day
# [3] = 400 mg/kg, 120 h, dose level High, time 5 day
smiles,measurement,setting,value
CC(C)(C#N)c1cc(Cn2cncn2)cc(C(C)(C)C#N)c1 [ANASTROZOLE],URIC ACID,"10 mg/kg, 72 h, dose level Low, time 3 day",1.33 mg/dL
same,ABSOLUTE BASOPHIL,[1],0 CELLS/uL
same,ABSOLUTE EOSINOPHIL,[1],0 CELLS/uL
same,ABSOLUTE LYMPHOCYTE,[1],12980 CELLS/uL
same,ABSOLUTE MONOCYTE,[1],0 CELLS/uL
same,ABSOLUTE SEGMENTED NEUTROPHIL,[1],1020 CELLS/uL
same,BASOPHIL,[1],0%
same,EOSINOPHIL,[1],0%
same,ERYTHROCYTE COUNT,[1],5.49 x10E6/uL
same,HEMATOCRIT,[1],34.93%
same,HEMOGLOBIN,[1],13.93 G/DL
same,LEUKOCYTE COUNT,[1],14 x10E3/uL
same,LYMPHOCYTE,[1],92.67%
same,MEAN CORPUSCULAR HEMOGLOBIN,[1],25.4 pg
same,MEAN CORPUSCULAR HEMOGLOBIN CONCENTRATION,[1],39.87 G/DL
same,MEAN CORPUSCULAR VOLUME,[1],63.57 fL
same,MONOCYTE,[1],0%
same,NEUTROPHIL,[1],7.33%
same,NUCLEATED RED BLOOD CELLS,[1],0 /100WBC
same,PLATELET COUNT,[1],1087.67 x10E3/uL
same,ALANINE AMINOTRANSFERASE,[1],48 u/L
same,ALBUMIN,[1],4.1 G/DL
same,ALKALINE PHOSPHATASE,[1],364.67 u/L
same,ASPARTATE AMINOTRANSFERASE,[1],77.33 u/L
same,BLOOD UREA NITROGEN,[1],18.33 mg/dL
same,CARBON DIOXIDE,[1],26 mmol/L
same,CHLORIDE,[1],103 MEQ/L
same,CHOLESTEROL,[1],60.67 mg/dL
same,CREATINE PHOSPHOKINASE,[1],224.33 u/L
same,CREATININE,[1],0.14 mg/dL
same,GLUCOSE,[1],146 mg/dL
same,LACTATE DEHYDROGENASE,[1],164 u/L
same,LIPASE,[1],9.33 u/L
same,PHOSPHORUS,[1],13.6 mg/dL
same,POTASSIUM,[1],7.31 MEQ/L
same,SODIUM,[1],142.23 MEQ/L
same,TOTAL BILIRUBIN,[1],0.2 mg/dL
same,TOTAL PROTEIN,[1],5.87 G/DL
same,URIC ACID,[1],1.9 mg/dL
same,ABSOLUTE BASOPHIL,[2],0 CELLS/uL
same,ABSOLUTE EOSINOPHIL,[2],0 CELLS/uL
same,ABSOLUTE LYMPHOCYTE,[2],16859 CELLS/uL
same,ABSOLUTE MONOCYTE,[2],135.33 CELLS/uL
same,ABSOLUTE SEGMENTED NEUTROPHIL,[2],1372.33 CELLS/uL
same,BASOPHIL,[2],0%
same,EOSINOPHIL,[2],0%
same,ERYTHROCYTE COUNT,[2],5.62 x10E6/uL
same,HEMATOCRIT,[2],34.7%
same,HEMOGLOBIN,[2],13.6 G/DL
same,LEUKOCYTE COUNT,[2],18.37 x10E3/uL
same,LYMPHOCYTE,[2],91.67%
same,MEAN CORPUSCULAR HEMOGLOBIN,[2],24.17 pg
same,MEAN CORPUSCULAR HEMOGLOBIN CONCENTRATION,[2],39.17 G/DL
same,MEAN CORPUSCULAR VOLUME,[2],61.7 fL
same,MONOCYTE,[2],0.67%
same,NEUTROPHIL,[2],7.67%
same,NUCLEATED RED BLOOD CELLS,[2],0.33 /100WBC
same,PLATELET COUNT,[2],1228.33 x10E3/uL
same,ALANINE AMINOTRANSFERASE,[2],89 u/L
same,ALBUMIN,[2],4.27 G/DL
same,ALKALINE PHOSPHATASE,[2],433 u/L
same,ASPARTATE AMINOTRANSFERASE,[2],126 u/L
same,BLOOD UREA NITROGEN,[2],17.33 mg/dL
same,CARBON DIOXIDE,[2],28.33 mmol/L
same,CHLORIDE,[2],98.33 MEQ/L
same,CHOLESTEROL,[2],69.33 mg/dL
same,CREATINE PHOSPHOKINASE,[2],255 u/L
same,CREATININE,[2],0.3 mg/dL
same,GLUCOSE,[2],143 mg/dL
same,LACTATE DEHYDROGENASE,[2],237 u/L
same,LIPASE,[2],11.33 u/L
same,PHOSPHORUS,[2],11.7 mg/dL
same,POTASSIUM,[2],7.49 MEQ/L
same,SODIUM,[2],141.93 MEQ/L
same,TOTAL BILIRUBIN,[2],0.17 mg/dL
same,TOTAL PROTEIN,[2],5.87 G/DL
same,URIC ACID,[2],1.83 mg/dL
same,ABSOLUTE BASOPHIL,[3],0 CELLS/uL
same,ABSOLUTE EOSINOPHIL,[3],0 CELLS/uL
same,ABSOLUTE LYMPHOCYTE,[3],11924.33 CELLS/uL
same,ABSOLUTE MONOCYTE,[3],19.67 CELLS/uL
same,ABSOLUTE SEGMENTED NEUTROPHIL,[3],1989.33 CELLS/uL
same,BASOPHIL,[3],0%
same,EOSINOPHIL,[3],0%
same,ERYTHROCYTE COUNT,[3],5.98 x10E6/uL
same,HEMATOCRIT,[3],35.47%
same,HEMOGLOBIN,[3],14.6 G/DL
same,LEUKOCYTE COUNT,[3],13.93 x10E3/uL
same,LYMPHOCYTE,[3],82%
same,MEAN CORPUSCULAR HEMOGLOBIN,[3],24.43 pg
same,MEAN CORPUSCULAR HEMOGLOBIN CONCENTRATION,[3],41.17 G/DL
same,MEAN CORPUSCULAR VOLUME,[3],59.37 fL
same,MONOCYTE,[3],0.33%
same,NEUTROPHIL,[3],17.67%
same,NUCLEATED RED BLOOD CELLS,[3],0.67 /100WBC
same,PLATELET COUNT,[3],1447 x10E3/uL
same,ALANINE AMINOTRANSFERASE,[3],478.67 u/L
same,ALBUMIN,[3],4.53 G/DL
same,ALKALINE PHOSPHATASE,[3],622.67 u/L
same,ASPARTATE AMINOTRANSFERASE,[3],1130.67 u/L
same,BLOOD UREA NITROGEN,[3],22 mg/dL
same,CARBON DIOXIDE,[3],21.33 mmol/L
same,CHLORIDE,[3],99.33 MEQ/L
same,CHOLESTEROL,[3],88.33 mg/dL
same,CREATINE PHOSPHOKINASE,[3],445.67 u/L
same,CREATININE,[3],0.46 mg/dL
same,GLUCOSE,[3],115 mg/dL
same,LACTATE DEHYDROGENASE,[3],826.67 u/L
same,LIPASE,[3],14.33 u/L
same,PHOSPHORUS,[3],11.97 mg/dL
same,POTASSIUM,[3],6.47 MEQ/L
same,SODIUM,[3],142.23 MEQ/L
same,TOTAL BILIRUBIN,[3],0.17 mg/dL
same,URIC ACID,[3],2.23 mg/dL
